Results reported in patent US7932290B2, “Method for the treatment of metabolic disorders” (Wellstat Biologics Corporation, priority 2003, dated 2011).

Key:
db/db mice [1] = test: Antidiabetic effects in db/db mice, Example B (2 weeks daily oral dosing); assay type: in vivo, mouse
Source text: (§1) db/db mice have a defect in leptin signaling, leading to hyperphagia, obesity and diabetes. Moreover, unlike ob/ob mice on a C57BL/6J background, db/db mice on a C57BL/KS background undergo failure of their insulin-producing pancreatic islet cells, resulting in progression from hyperinsulinemia (associated with peripheral insulin resistance) to hypoinsulinemic diabetes.
Male obese (db/db homozygote) C57BL/Ksola mice approximately 8 weeks of age, were obtained from Jackson Labs (Bar Harbor, Me.) and randomly assigned into groups of 5-7 animals such that the body weights (50-55 g) and serum glucose levels (≧300 mg/dl in fed state) were similar between groups; male lean (db/+heterozygote) mice served as cohort controls. A minimum of 7 days was allowed for adaptation after arrival. All animals were maintained under controlled temperature (23° C.), relative humidity (50±5%) and light (7:00-19:00), and allowed free access to standard chow (Formulab Diet 5008, Quality Lab Products, Elkridge, Md.) and water.
Treatment cohorts were given daily oral doses of Vehicle (1% hydroxypropylmethylcellulose), Compounds BI, CE, BT, BV, […] or Fenofibrate for 2 weeks. At the end of the treatment period 100 μl of venous blood was withdrawn in a heparinized capillary tube from the retro-orbital sinus of db/db mice for serum chemistry analysis.

[2] = test system: male ob/ob mouse model of Type II diabetes; test: Antidiabetic effects in ob/ob mice (serum chemistry after 2 weeks daily oral dosing); assay type: in vivo; set-up: key to Glucose ± SEM: serum glucose in mg/dl; Triglycerides ± SEM / Free Fatty Acids ± SEM: unit not given here; details: for Glucose / Glucose (% of Control): 2 weeks; for Glucose ± SEM: Table 15; for reduction in blood glucose (in words) / reduction in free fatty acids (in words) / reduction in triglycerides (in words): 2 weeks daily oral dosing
Description: Obese (ob/ob) mice have a defect in the protein leptin, a regulator of appetite and fuel metabolism, leading to hyperphagia, obesity and diabetes.
Male obese (ob/ob homozygote) C57BL/6J mice, approximately 8 weeks of age, were obtained from Jackson Labs (Bar Harbor, Me.) and randomly assigned into groups of 5 animals each such that the body weights (45-50 g) and serum glucose levels (≧300 mg/dl in fed state) were similar between groups. A minimum of 7 days was allowed for adaptation after arrival. All animals were maintained under controlled temperature (23° C.), relative humidity (50±5%) and light (7:00-19:00), and allowed free access to standard chow (Formulab Diet 5020 Quality Lab Products, Elkridge, Md.) and water.
Treatment cohorts were given daily oral doses of vehicle (1% hydroxypropyl-methylcellulose), Compounds BI, CF, CA, CB, CC, or CD for 2 weeks. At the end of the treatment period 100 μl of venous blood was withdrawn in a heparinized capillary tube from the retro-orbital sinus of ob/ob mice for serum chemistry analysis.

db/db mice [3] = test: Antidiabetic effects in db/db mice, Example C (17 days daily oral dosing); assay type: in vivo, mouse
Source text: as §1, with “C57BL/Ksola (db/db) mice have” for “db/db mice have”, “on a C57BLKS background undergo” for “on a C57BL/KS background undergo”
Male obese (db/db homozygote) C57BL/Ksola mice approximately 8 weeks of age, were obtained from Jackson Labs (Bar Harbor, Me.) and sorted into groups of 7 animals each animals such that the body weights (40-45 g) and serum glucose levels (≧300 mg/dl in fed state) were similar between groups. A minimum of 7 days was allowed for adaptation after arrival. All animals were maintained under controlled temperature (23° C.), relative humidity (50±5%) and light (7:00-19:00), and allowed free access to standard chow (Formulab Diet 5008, Quality Lab Products, Elkridge, Md.) and water.
Treatment cohorts were given daily oral doses of vehicle (1% hydroxypropylmethylcellulose), Compounds BI, CF, CG, or phenylacetate for 17 days. At the end of the treatment period, blood samples were collected and serum glucose and triglycerides were measured.

[4] = target: T1, Mouse PPARγ LBD fusion protein (Mus musculus, UniProt P37238); test: Transcription activation potential, GAL4 luciferase reporter in Hepa1.6 cells; assay type: cell-based
T1 sequence (P37238 238-503): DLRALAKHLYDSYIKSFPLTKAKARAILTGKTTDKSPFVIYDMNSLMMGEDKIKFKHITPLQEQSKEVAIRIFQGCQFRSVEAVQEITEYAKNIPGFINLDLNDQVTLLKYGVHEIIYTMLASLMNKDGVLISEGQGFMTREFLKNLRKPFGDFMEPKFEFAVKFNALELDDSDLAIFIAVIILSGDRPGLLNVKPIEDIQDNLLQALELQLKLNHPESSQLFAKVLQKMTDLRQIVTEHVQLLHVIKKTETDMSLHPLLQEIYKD
Description: Cells were seeded in 24 well plates the day prior to transfection at 5×10^4−2×10^5 cells/well, depending upon cell type. Cells were transfected using Lipofectamine 2000 reagent from Invitrogen. A total of 0.8 μg DNA/well was added to 50 μL of Optimem Reduced Serum media (serum free; Gibco). Lipofectamine 2000 was added (2.5 μL/well) to another tube containing 50 μL of Optimem media. Plasmid DNA was added at a ratio of 4:3 (reporter:activator); where appropriate, salmon sperm DNA was substituted for activator expressing plasmid. […] DNA constructs containing the mouse PPARα or PPARγ LBD fused to the GAL4 DNA binding domain were also used. The two solutions were incubated at room temperature for 5 min, and then combined. The combined solution was incubated at room temperature for approximately 30 min. Cells were washed once with PBS, and 100 μL of transfection mix added to each well. Plates were incubated at 37° C. in a 5% CO2 incubator for 4.5 hr, followed by aspiration of the transfection mix, with plates refed using EMEM complete media (supplemented with 10% FBS, 1× Glutamine). 24 hr post-transfection, plates were treated with the appropriate compounds in EMEM complete media, followed by washing once with PBS and addition of 100 μL 1× reporter lysis buffer/well (Promega) 24 hr after treatment. Plates went through one freeze/thaw cycle prior to analysis. Approximately 10 μL of lysate was added to 100 μL of firefly luciferase substrate, mixed by pipetting, and analyzed on a luminometer for 10 s using the integration function (relative luciferase units/RLU) or on a Microbeta Trilux (luciferase counts per second/LCPS). Each treatment was performed in triplicate, and in multiple, separate experiments.

[5] = serum, 2 weeks daily oral, dose not given in Table 17 (see Table 16)

Cc1cccc(C)c1COc1cccc(C(=O)CCC(=O)O)c1 [Compound BI, 4-(3-(2,6-Dimethylbenzyloxy)phenyl)-4-oxobutyric acid]
Glucose (% of Control) (db/db mice [1]; 100 mg/kg daily oral, 2 weeks): 50 ± 6 % of Control | Glucose (db/db mice [1]; nonfasting, 100 mg/kg daily oral, 2 weeks): 347.0 ± 43.1 mg/dL | Free Fatty Acids ± SEM (db/db mice [1]; [5]): 1997.2 ± 196.4 µM | Triglycerides ± SEM (db/db mice [1]; [5]): 77.8 ± 5.3 mg/dL | Free Fatty Acids ± SEM ([2]; 30 mg/kg): 1272.8 ± 32.5 | Triglycerides ± SEM ([2]; 30 mg/kg): 66.6 ± 3.6 | Glucose ([2]; 30 mg/kg daily oral): 301.4 ± 29.0 mg/dL | Glucose (% of Control) ([2]; 30 mg/kg daily oral): 71.0 ± 7.0 % of Control | Glucose ± SEM ([2]; 30 mg/kg): 301.4 ± 29.0 | Glucose ([2]; 60 mg/kg daily oral): 248.8 ± 20.0 mg/dL | Glucose (% of Control) ([2]; 60 mg/kg daily oral): 59.0 ± 5.0 % of Control | Free Fatty Acids ± SEM ([2]; 100 mg/kg): 1245.4 ± 20.0 | Triglycerides ± SEM ([2]; 100 mg/kg): 55.0 ± 3.4 | Glucose ([2]; 100 mg/kg daily oral): 196.3 ± 6.0 mg/dL | Glucose (% of Control) ([2]; 100 mg/kg daily oral): 46.0 ± 1.0 % of Control | reduction in blood glucose (in words) ([2]; 100 mg/kg): significant reduction | reduction in free fatty acids (in words) ([2]; 100 mg/kg): significant reduction | reduction in triglycerides (in words) ([2]; 100 mg/kg): significant reduction | Glucose ± SEM ([2]; 100 mg/kg): 196.3 ± 6.0 | Glucose mg/dL (±SEM) (db/db mice [3]; 100 mg/kg daily oral): 472 ± 54 mg/dL | Triglycerides (db/db mice [3]; 100 mg/kg daily oral): 116 ± 4 mg/dL | Glucose mg/dL (±SEM) (db/db mice [3]; 150 mg/kg daily oral): 348 ± 67 mg/dL | Triglycerides (db/db mice [3]; 150 mg/kg daily oral): 90 ± 6 mg/dL | transcription activation potential (luciferase) ± standard deviation ([4]; 1 μM): 210 ± 51 RLU | transcription activation potential (luciferase) ± standard deviation ([4]; 3 μM): 256 ± 33 RLU | transcription activation potential (luciferase) ± standard deviation ([4]; 5 μM): 254 ± 81 RLU | transcription activation potential (luciferase) ± standard deviation ([4]; 7 μM): 265 ± 61 RLU | transcription activation potential (luciferase) ± standard deviation ([4]; 10 μM): 355 ± 53 RLU | transcription activation potential (luciferase) ± standard deviation ([4]; 30 μM): 441 ± 203 RLU | transcription activation potential (luciferase) ± standard deviation ([4]; 100 μM): 820 ± 353 RLU

Cc1cccc(C)c1COc1cccc(CC(=O)O)c1 [Compound CF, 3-(2,6-Dimethylbenzyloxy)phenylacetic acid]
Glucose ([2]; 60 mg/kg daily oral): 161.2 ± 14.0 mg/dL | Glucose (% of Control) ([2]; 60 mg/kg daily oral): 38.0 ± 3.0 % of Control | reduction in blood glucose (in words) ([2]; 60 mg/kg): significant reduction | reduction in free fatty acids (in words) ([2]; 60 mg/kg): significant reduction | reduction in triglycerides (in words) ([2]; 60 mg/kg): significant reduction | Glucose mg/dL (±SEM) (db/db mice [3]; 30 mg/kg daily oral): 586 ± 31 mg/dL | Triglycerides (db/db mice [3]; 30 mg/kg daily oral): 156 ± 20 mg/dL | Glucose mg/dL (±SEM) (db/db mice [3]; 60 mg/kg daily oral): 604 ± 36 mg/dL | Triglycerides (db/db mice [3]; 60 mg/kg daily oral): 120 ± 13 mg/dL | Glucose mg/dL (±SEM) (db/db mice [3]; 100 mg/kg daily oral): 391 ± 61 mg/dL | Triglycerides (db/db mice [3]; 100 mg/kg daily oral): 92 ± 6 mg/dL | transcription activation potential (luciferase) ± standard deviation ([4]; 1 μM): 361 ± 138 RLU | transcription activation potential (luciferase) ± standard deviation ([4]; 3 μM): 602 ± 144 RLU | transcription activation potential (luciferase) ± standard deviation ([4]; 5 μM): 710 ± 87 RLU | transcription activation potential (luciferase) ± standard deviation ([4]; 7 μM): 786 ± 418 RLU | transcription activation potential (luciferase) ± standard deviation ([4]; 10 μM): 1140 ± 111 RLU | transcription activation potential (luciferase) ± standard deviation ([4]; 30 μM): 1253 ± 554 RLU | transcription activation potential (luciferase) ± standard deviation ([4]; 100 μM): 1534 ± 608 RLU

Cc1cccc(C)c1COc1cccc(C(=O)O)c1 [Compound CG, 3-(2,6-Dimethylbenzyloxy)benzoic acid]
Glucose mg/dL (±SEM) (db/db mice [3]; 100 mg/kg daily oral): 753 ± 24 mg/dL | Triglycerides (db/db mice [3]; 100 mg/kg daily oral): 166 ± 14 mg/dL
